The values that follow are results of earlier work, collected in US9067940B2, “Alicyclic derivatives of N,N'-substituted 3,7-diazabicyclo[3.3.1]nonanes and medicaments based thereon” (priority 2011, dated 2015).

In data set [1] the test system is AMPA receptors. To be noted: adult rats, 0.3-3 mg/kg.
The test system of data set [2] is AMPA receptors.
Data set [3] deals with AMPA receptors. Conditions: only at high concentrations.
For data set [4] the following is noted: mice suffering from diabetes.
For data set [5] the following is noted: behavioral models.

Consider `O=C(c1ccc2c(c1)OCCO2)N1CCCCC1` [CX546], for which the social memory result in the data set with AMPA receptors [1] was “improves social memory”.

Regarding `COc1ccc(C(=O)NCCCC(=O)O)cc1` [anisoyl-GABA], in the data set on AMPA receptors [2] (metabolite of aniracetam), the aniracetam-like effects entry is “no aniracetam-like effects”.

For `COc1ccc(C(=O)N2CCCC2=O)cc1` [aniracetam], the “effect on synaptic signal at several hippocampus sites” value in the data set with AMPA receptors [2] is “enhances the synaptic signal”. The “effect on NMDA-mediated signals” value in the data set on NMDA-mediated signals was “no effect”. Further, in the data set with AMPA receptors [3], the “concentration at which the clinical effect is manifested” value is reported as 0.1 mM.

B1: BDNF: brain-derived neurotrophic factor, a neural tissue growth factor (protein, UniProt P23560 19-247, looked up)
Neurotrophic factor BDNF …: APMKEANIRGQGGLAYPGVRTHGTLESVNGPKAGSRGLTSLADTFEHVIEELLDEDQKVRPNEENNKDADLYTSRVMLSSQVPLEPPLLFLLEEYKNYLDAANMSMRVRRHSDPARRGELSVCDSISEWVTAADKKTAVDMSGGTVTVLEKVPVSKGQLKQYFYETKCNPMGYTKEGCRGIDKRHWNSQCRTTQSYVRALTMDSKKRIGWRFIRIDTSCVCTLTIKRGR
Regarding B1, in data set [4], the blood glucose concentration entry is recorded as “reduce the blood glucose concentration”. For the same molecule, in data set [5], the antidepressant effect entry was “antidepressant effect”.
